Data on three molecules can be found in patent publication EP1149074B1, “ACETYLENIC SULFONAMIDE THIOL TACE INHIBITORS” (Wyeth Holdings Corporation, priority 1999, dated 2000).

Molecules are shown by their SMILES.

As a reminder, the IC50 is the concentration that gives 50% inhibition.

Test [1] addresses TACE (Homo sapiens, UniProt P78536). Nature of the test: TACE inhibition test procedure (fluorescent peptidyl substrate). The format is biochemical. The protocol: Test Procedure for Measuring TACE Inhibition
Using 96-well black microtiter plates, each well receives a solution composed of 10 µL TACE (final concentration 1µg/mL), 70µL Tris buffer, pH 7.4 containing 10% glycerol (final concentration 10 mM), and 10 µL of test compound solution in DMSO (final concentration 1µM, DMSO concentration <1%) and incubated for 10 minutes at room temperature. The reaction is initiated by addition of a fluorescent peptidyl substrate (final concentration 100 µM) to each well and then shaking on a shaker for 5 sec.
The reaction is read (excitation 340 nm, emission 420 nm) for 10 min. and the increase in fluorescence over time is plotted as a linear line. The slope of the line is calculated and represents the reaction rate.
The linearity of the reaction rate is confirmed (r^2 >0.85). The mean (x±sem) of the control rate is calculated and compared for statistical significance (p<0.05) with drug-treated rates using Dunnett's multiple comparison test. Dose-response relationships can be generate using multiple doses of drug and IC50 values with 95% CI are estimated using linear regression.

Test [2] relates to THP-1 cells. Nature of the test: Human monocytic THP-1 cell differentiation assay for soluble proteins (THP-1 soluble protein assay). The format is cell-based. The note with it: LPS-stimulated THP-1 cells; quantity, unit and concentration not given. An excerpt: Human Monocytic THP-1 Cell Differentiation Assay For Soluble Proteins (THP-1 Soluble Protein Assay)
Mitogenic stimulation of THP-1 cells cause differentiation into macrophage like cells with concomitant secretion of tumor necrosis factor (TNF-α) and TNF receptor (TNF-R p75/80 and TNF-R p55/60) and Interleukin-8 (IL-8), among other proteins. In addition, non-stimulated THP-1 cells shed both the p75/80 and the […] receptors over time. The release of membrane bound TNF-α and possibly TNF-R p75/80 and TNF-R p55/60, but not IL-8, is mediated by an enzyme called TNF-α converting enzyme or TACE.
THP-1 cells (from ATCC) are a human monocytic cell line which were obtained from the peripheral blood of a person with acute monocytic leukemia. They can be grown in culture and differentiated into macrophage like cells by stimulation with mitogens.
For the assay, THP-1 cells are seeded from an ATCC stock which was previously grown and frozen back at 5 x 10^6/ml/vial. […]
To perform an assay, the THP-1 cells are co-incubated in a 24 well plate with […] of a 24 mg/ml stock of Lipopolysacharide (LPS) (Calbiochem Lot# B13189) at 37°C in 5% CO2 at a concentration of 1.091 x 10^6 cells/ml (1.1 ml/well) for a total of 24 hours. […] Compounds can be evaluated for their effect on basal (non-stimulated) shedding of the receptors by replacing the LPS with […] of THP-1 media. […]
In addition, at the 24 hours timepoint, and the cells for each treatment group are collected by resuspension in 500 µl/well of THP-1 media and transferred into a FACS tube. […] The samples are run on a Becton Dickinson FaxCaliber FLOW cytometry machine and the amount of dye taken up by each cell is measured in the high red wavelength (FL3). […] The percent of live cells is calculated by the number of cells not stained with PI, divided by the total number of cells in the sample. The viability values calculated for the drug treated groups were compared to the viability value calculated for the vehicle treated mitogen stimulated group ("vehicle positive control") to determine the "percent change from control". […]

TACE, sequence (P78536 215-824): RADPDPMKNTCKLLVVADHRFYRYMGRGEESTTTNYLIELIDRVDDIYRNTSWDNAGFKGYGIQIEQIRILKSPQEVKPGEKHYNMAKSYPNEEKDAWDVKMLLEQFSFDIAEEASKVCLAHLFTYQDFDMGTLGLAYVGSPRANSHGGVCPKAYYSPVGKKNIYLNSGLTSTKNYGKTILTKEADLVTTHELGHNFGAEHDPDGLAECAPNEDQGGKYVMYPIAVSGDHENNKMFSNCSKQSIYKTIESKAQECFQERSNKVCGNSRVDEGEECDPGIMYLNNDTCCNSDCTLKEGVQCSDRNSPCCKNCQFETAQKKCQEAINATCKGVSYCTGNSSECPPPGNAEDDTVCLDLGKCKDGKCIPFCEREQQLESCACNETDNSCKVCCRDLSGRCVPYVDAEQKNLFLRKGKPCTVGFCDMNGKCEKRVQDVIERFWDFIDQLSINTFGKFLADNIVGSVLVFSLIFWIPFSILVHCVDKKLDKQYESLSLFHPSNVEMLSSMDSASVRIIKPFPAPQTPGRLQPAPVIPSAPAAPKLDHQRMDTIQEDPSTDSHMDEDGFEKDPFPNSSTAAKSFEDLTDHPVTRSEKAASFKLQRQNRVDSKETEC

For `CC#CCOc1ccc(S(=O)(=O)N(CCN2CCOCC2)[C@H](C)CS)cc1` [Example 11, 4-(2-Butynyloxy)-N-[(1R)-1-methyl-2-sulfanylethyl]-N-[2-(4-morpholinyl)ethyl]benzenesulfonamide], in test [1], half-maximal inhibition (IC50) was put at 362 nM. In addition, the THP in test [2] is 11.
`CC#CCOc1ccc(S(=O)(=O)N(CCN2CCOCC2)[C@@H](CS)C(N)=O)cc1` [Example 15, (2R)-2-{{[4-(2-Butynyloxy)phenyl]sulfonyl}[2-(4-morpholinyl)ethyl]amino}-3-sulfanylpropanamide]: the IC50 in test [1] turned out to be 263 nM. The molecule further came in with a THP in test [2] of 19.
Turning to `CC#CCOc1ccc(S(=O)(=O)N(C)[C@H](C)CS)cc1` [Example 8, 4-But-2-ynyloxy-N-((1R)-2-mercapto-1-methyl-ethyl)-N-methyl-benzenesulfonamide], the THP in test [2] is given as 3.
